Assay results reported in ChEMBL document CHEMBL3991601, “The target landscape of clinical kinase drugs” (Science, 2017).
Calls of active or inactive are those of the source. Cut-off read from the data, not from the text of the source, for most assays here: actives have a measured Kd and inactives only a lower limit.

Experiments:
[1] = molecular target: T1, Mitogen-activated protein kinase 15 (Homo sapiens, UniProt Q8TD08)
T1 sequence (Q8TD08 whole entry): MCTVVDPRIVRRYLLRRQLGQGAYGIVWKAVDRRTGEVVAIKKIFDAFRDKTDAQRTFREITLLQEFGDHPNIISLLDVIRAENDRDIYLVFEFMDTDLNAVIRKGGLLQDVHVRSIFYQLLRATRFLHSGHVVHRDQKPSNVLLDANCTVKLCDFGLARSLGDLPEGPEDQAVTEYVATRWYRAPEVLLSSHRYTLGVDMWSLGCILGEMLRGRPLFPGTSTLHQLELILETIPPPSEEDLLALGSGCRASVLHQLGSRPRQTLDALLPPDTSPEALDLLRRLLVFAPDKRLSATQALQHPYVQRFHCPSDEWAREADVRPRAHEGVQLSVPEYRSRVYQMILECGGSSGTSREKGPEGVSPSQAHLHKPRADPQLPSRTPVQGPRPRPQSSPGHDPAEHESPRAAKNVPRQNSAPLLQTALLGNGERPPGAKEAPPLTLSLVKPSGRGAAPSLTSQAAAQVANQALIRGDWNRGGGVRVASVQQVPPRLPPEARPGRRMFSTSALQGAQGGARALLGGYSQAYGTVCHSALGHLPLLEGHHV

[2] = molecular target: Casein kinase I isoform gamma-1 (Homo sapiens, UniProt Q9HCP0)
[3] = molecular target: TRAF2 and NCK-interacting protein kinase (Homo sapiens, UniProt Q9UKE5)
[4] = molecular target: Putative heat shock protein HSP 90-beta 2 (Homo sapiens, UniProt Q58FF8)
[5] = molecular target: Tyrosine-protein kinase ABL2 (Homo sapiens, UniProt P42684)
[6] = molecular target: Fibroblast growth factor receptor 1 (Homo sapiens, UniProt P11362)
[7] = molecular target: Receptor-interacting serine/threonine-protein kinase 2 (Homo sapiens, UniProt O43353)
Deoxycytidine kinase = Deoxycytidine kinase (Homo sapiens, UniProt P27707)
[8] = molecular target: T2, NUAK family SNF1-like kinase 2 (Homo sapiens, UniProt Q9H093)
T2 sequence (Q9H093 whole entry): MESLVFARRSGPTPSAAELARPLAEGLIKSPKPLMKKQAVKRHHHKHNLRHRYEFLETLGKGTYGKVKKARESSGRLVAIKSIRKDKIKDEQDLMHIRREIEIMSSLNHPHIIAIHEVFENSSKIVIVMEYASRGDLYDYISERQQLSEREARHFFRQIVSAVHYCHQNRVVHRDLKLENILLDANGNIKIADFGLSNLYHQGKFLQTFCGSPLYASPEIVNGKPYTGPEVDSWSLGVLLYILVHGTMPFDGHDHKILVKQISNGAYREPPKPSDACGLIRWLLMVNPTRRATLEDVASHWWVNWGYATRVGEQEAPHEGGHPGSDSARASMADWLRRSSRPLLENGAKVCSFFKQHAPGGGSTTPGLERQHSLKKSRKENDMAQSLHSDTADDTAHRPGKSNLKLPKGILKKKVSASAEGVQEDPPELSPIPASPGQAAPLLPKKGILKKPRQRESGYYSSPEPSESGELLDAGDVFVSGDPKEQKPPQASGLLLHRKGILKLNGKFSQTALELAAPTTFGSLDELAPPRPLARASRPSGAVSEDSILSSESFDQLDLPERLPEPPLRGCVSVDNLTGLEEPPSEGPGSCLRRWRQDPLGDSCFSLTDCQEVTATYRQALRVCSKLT

[9] = molecular target: Inosine-5'-monophosphate dehydrogenase 2 (Homo sapiens, UniProt P12268)
[10] = molecular target: Protein kinase C theta type (Homo sapiens, UniProt Q04759)
[11] = molecular target: Casein kinase I isoform delta (Homo sapiens, UniProt P48730)
[12] = molecular target: Mitogen-activated protein kinase kinase kinase kinase 5 (Homo sapiens, UniProt Q9Y4K4)
[13] = molecular target: Non-receptor tyrosine-protein kinase TYK2 (Homo sapiens, UniProt P29597)
Activated CDC42 kinase 1 = Activated CDC42 kinase 1 (Homo sapiens, UniProt Q07912)
[14] = molecular target: Ribosomal protein S6 kinase alpha-4 (Homo sapiens, UniProt O75676)
[15] = molecular target: Tyrosine-protein kinase CSK (Homo sapiens, UniProt P41240)
[16] = molecular target: Ribosomal protein S6 kinase beta-1 (Homo sapiens, UniProt P23443)
[17] = molecular target: S-adenosylmethionine synthase isoform type-2 (Homo sapiens, UniProt P31153)
[18] = molecular target: Cyclin-dependent kinase 7 (Homo sapiens, UniProt P50613)
Note: in the data inactive means no Kd found up to 30 µM.

Cyclin-dependent kinase 7, sequence (P50613 whole entry): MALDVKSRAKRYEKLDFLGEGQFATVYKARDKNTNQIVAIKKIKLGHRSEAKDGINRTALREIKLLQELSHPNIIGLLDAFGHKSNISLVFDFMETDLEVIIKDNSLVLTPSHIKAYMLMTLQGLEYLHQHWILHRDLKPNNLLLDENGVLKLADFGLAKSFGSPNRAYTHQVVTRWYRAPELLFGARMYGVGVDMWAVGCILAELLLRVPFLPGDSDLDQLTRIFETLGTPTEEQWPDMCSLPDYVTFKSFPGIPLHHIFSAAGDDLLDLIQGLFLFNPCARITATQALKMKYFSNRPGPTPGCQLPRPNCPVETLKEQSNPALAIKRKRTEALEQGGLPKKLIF
TRAF2 and NCK-interacting protein kinase, sequence (Q9UKE5 whole entry): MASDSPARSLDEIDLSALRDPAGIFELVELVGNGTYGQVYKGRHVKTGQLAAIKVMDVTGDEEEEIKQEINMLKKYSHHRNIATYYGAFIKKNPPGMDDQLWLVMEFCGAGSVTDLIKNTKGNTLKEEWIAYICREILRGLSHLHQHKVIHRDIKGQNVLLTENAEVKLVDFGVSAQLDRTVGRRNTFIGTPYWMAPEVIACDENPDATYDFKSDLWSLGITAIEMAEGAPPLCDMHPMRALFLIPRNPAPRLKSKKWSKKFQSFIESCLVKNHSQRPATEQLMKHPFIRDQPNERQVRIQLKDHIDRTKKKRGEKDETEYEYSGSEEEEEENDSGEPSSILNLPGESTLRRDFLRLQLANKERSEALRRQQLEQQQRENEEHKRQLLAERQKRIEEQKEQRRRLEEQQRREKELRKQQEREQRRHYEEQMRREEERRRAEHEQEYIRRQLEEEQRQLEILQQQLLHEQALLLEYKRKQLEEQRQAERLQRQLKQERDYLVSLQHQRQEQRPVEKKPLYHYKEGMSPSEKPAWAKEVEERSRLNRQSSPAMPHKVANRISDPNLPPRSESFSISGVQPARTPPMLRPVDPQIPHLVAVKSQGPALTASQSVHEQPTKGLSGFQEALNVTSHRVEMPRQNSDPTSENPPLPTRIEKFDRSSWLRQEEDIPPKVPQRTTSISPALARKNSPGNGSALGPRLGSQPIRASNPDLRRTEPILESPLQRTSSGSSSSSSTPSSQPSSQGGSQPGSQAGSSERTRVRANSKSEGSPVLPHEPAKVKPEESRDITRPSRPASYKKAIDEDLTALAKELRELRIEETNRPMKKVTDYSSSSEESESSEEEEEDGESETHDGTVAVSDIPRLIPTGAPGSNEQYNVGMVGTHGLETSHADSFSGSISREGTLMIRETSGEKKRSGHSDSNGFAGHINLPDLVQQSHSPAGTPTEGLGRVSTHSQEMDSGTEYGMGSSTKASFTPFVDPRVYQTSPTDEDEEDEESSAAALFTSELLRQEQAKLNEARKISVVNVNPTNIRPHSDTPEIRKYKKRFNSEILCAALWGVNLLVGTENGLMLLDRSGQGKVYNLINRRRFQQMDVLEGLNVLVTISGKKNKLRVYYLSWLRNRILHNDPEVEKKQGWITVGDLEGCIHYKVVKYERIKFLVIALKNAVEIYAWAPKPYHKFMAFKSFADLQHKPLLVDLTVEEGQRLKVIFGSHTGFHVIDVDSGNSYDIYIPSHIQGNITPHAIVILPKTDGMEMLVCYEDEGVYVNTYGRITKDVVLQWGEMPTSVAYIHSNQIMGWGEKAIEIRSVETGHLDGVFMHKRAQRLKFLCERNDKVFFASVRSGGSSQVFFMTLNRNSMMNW
Receptor-interacting serine/threonine-protein kinase 2, sequence (O43353 whole entry): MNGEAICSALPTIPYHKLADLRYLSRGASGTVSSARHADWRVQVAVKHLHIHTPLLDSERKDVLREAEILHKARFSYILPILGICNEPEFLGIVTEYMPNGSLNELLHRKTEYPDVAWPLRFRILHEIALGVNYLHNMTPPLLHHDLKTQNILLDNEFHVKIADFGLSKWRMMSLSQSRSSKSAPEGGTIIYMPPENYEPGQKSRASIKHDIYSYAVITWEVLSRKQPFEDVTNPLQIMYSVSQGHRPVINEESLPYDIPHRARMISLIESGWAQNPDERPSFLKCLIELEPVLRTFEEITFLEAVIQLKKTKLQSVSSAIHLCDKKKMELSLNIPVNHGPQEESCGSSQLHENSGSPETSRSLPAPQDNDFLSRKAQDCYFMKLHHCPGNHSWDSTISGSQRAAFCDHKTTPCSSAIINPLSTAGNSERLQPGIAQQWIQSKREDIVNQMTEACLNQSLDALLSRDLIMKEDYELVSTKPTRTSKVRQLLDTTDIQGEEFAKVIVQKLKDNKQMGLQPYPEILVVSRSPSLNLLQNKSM
Casein kinase I isoform delta, sequence (P48730 whole entry, canonical isoform): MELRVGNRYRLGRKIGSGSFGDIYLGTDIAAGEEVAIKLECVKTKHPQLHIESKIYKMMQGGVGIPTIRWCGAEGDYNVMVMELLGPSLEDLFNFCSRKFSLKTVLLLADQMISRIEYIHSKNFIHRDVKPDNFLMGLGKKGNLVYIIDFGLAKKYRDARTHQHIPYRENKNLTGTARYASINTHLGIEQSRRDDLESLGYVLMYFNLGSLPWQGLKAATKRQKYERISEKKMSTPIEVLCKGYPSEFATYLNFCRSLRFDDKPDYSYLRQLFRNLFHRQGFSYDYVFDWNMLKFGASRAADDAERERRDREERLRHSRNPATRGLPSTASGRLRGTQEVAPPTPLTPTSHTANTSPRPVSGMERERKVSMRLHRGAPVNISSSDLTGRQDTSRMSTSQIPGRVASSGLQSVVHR
Ribosomal protein S6 kinase beta-1, sequence (P23443 whole entry, canonical isoform): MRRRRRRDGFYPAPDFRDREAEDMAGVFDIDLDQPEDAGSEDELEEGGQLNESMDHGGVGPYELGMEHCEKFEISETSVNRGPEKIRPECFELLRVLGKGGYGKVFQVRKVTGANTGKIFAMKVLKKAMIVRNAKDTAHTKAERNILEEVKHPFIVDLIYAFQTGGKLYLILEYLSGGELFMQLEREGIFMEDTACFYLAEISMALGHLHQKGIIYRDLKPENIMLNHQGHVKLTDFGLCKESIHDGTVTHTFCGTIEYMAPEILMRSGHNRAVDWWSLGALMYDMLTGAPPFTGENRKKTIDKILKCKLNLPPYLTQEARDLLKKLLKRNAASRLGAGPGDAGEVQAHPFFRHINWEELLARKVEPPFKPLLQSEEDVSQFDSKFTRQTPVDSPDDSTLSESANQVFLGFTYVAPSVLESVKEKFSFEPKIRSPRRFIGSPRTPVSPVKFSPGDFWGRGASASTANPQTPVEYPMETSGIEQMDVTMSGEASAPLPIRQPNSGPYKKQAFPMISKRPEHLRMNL
Protein kinase C theta type, sequence (Q04759 whole entry, canonical isoform): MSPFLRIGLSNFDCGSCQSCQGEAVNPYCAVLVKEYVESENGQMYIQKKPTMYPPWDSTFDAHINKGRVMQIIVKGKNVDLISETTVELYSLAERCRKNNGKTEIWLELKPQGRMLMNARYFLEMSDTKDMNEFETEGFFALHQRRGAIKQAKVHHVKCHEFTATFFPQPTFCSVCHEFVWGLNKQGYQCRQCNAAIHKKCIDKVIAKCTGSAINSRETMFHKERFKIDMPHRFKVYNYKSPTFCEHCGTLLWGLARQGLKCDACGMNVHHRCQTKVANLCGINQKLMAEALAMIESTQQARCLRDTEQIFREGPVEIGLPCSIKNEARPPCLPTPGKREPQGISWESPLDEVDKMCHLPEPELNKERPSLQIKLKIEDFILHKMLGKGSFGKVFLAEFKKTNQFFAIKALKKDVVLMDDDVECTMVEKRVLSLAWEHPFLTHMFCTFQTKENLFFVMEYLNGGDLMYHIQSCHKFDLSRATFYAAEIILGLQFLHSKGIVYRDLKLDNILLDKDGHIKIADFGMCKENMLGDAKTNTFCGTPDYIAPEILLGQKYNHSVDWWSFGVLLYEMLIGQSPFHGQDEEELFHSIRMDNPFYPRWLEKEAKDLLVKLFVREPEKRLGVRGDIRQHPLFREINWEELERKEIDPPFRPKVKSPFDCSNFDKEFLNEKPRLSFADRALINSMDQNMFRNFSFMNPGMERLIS
Tyrosine-protein kinase ABL2, sequence (P42684 whole entry): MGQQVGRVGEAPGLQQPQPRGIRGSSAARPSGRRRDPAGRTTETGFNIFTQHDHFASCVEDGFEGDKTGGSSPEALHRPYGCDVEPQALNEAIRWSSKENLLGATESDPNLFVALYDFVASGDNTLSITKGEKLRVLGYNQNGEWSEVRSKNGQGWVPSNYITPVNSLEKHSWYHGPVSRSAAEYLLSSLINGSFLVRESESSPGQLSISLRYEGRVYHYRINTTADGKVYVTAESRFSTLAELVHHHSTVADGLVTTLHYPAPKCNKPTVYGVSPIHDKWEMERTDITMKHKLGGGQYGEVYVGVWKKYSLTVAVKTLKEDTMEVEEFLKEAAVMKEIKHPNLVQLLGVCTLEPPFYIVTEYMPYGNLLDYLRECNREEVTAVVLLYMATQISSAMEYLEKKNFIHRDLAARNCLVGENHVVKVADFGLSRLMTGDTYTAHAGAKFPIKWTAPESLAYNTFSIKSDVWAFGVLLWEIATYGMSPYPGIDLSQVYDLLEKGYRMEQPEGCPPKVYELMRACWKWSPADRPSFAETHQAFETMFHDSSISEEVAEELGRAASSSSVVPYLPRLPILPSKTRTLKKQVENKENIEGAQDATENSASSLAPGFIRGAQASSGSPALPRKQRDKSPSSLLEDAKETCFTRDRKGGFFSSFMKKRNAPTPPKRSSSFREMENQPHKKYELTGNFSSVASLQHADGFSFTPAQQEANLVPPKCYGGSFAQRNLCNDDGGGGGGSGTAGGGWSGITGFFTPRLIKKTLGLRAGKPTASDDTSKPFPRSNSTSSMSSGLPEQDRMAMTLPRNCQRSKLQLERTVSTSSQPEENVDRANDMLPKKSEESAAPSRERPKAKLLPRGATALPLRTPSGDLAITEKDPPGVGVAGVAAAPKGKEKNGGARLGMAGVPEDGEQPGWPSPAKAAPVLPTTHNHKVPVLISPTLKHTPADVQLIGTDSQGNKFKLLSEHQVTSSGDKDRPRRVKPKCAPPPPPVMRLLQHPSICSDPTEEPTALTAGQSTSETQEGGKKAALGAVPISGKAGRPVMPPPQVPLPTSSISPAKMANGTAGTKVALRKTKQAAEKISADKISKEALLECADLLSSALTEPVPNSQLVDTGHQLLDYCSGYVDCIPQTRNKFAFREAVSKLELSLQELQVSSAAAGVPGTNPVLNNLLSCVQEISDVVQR

Kd [2]	Kd [3]	Kd [4]	Kd [5]	Kd [6]	Kd [7]	Kd (Deoxycytidine kinase)	Kd [8]	Kd [10]	Kd [11]	Kd [12]	Kd [13]	Kd (Activated CDC42 kinase 1)	Kd [14]	Kd [15]	Kd [16]	Kd [17]	Kd [18]	Compound	Kd [1]	Kd [9]
> 30 µM (inactive)	> 30 µM (inactive)	> 30 µM (inactive)	> 30 µM (inactive)	> 30 µM (inactive)	> 30 µM (inactive)	> 30 µM (inactive)	> 30 µM (inactive)	> 30 µM (inactive)	> 30 µM (inactive)	> 30 µM (inactive)	> 30 µM (inactive)	> 30 µM (inactive)	> 30 µM (inactive)	> 30 µM (inactive)	> 30 µM (inactive)	> 30 µM (inactive)	> 30 µM (inactive)	COc1ccc(S(=O)(=O)N(C(C)=O)c2ccccc2/C=C/c2cc[n+]([O-])cc2)cc1 [HMN-214]	> 30 µM (inactive)	–
> 30 µM (inactive)	> 30 µM (inactive)	> 30 µM (inactive)	0.422 µM (active)	1.39 µM (active)	> 30 µM (inactive)	> 30 µM (inactive)	0.705 µM (active)	> 30 µM (inactive)	> 30 µM (inactive)	5.36 µM (active)	> 30 µM (inactive)	0.281 µM (active)	3 µM (active)	> 30 µM (inactive)	> 30 µM (inactive)	> 30 µM (inactive)	0.205 µM (active)	CCS(=O)(=O)c1cccc(-c2cc(C(=O)NC3CCN(C)CC3)c(C)c3[nH]c4ncc(C)cc4c23)c1 [TAK-901]	> 30 µM (inactive)	–

Further lines, the compound ahead of its results:

Compound	Kd [2]	Kd [3]	Kd [4]	Kd [5]	Kd [6]	Kd [7]	Kd (Deoxycytidine kinase)	Kd [8]	Kd [10]	Kd [11]	Kd [12]	Kd [13]	Kd (Activated CDC42 kinase 1)	Kd [14]	Kd [15]	Kd [16]	Kd [17]	Kd [18]	Kd [1]	Kd [9]
C=CC(=O)N1CCC[C@H](n2c(=O)n(-c3ccc(Oc4ccccc4)cc3)c3c(N)ncnc32)C1	> 30 µM (inactive)	> 30 µM (inactive)	> 30 µM (inactive)	> 30 µM (inactive)	> 30 µM (inactive)	0.007 µM	> 30 µM (inactive)	> 30 µM (inactive)	> 30 µM (inactive)	> 30 µM (inactive)	> 30 µM (inactive)	> 30 µM (inactive)	> 30 µM (inactive)	> 30 µM (inactive)	0.007 µM	> 30 µM (inactive)	> 30 µM (inactive)	> 30 µM (inactive)	> 30 µM (inactive)	> 30 µM (inactive)
Cc1nc(NC(=O)N2CCC[C@H]2C(N)=O)sc1-c1ccnc(C(C)(C)C(F)(F)F)c1 [ALPELISIB]	> 30 µM (inactive)	> 30 µM (inactive)	> 30 µM (inactive)	> 30 µM (inactive)	> 30 µM (inactive)	> 30 µM (inactive)	> 30 µM (inactive)	> 30 µM (inactive)	> 30 µM (inactive)	> 30 µM (inactive)	> 30 µM (inactive)	> 30 µM (inactive)	> 30 µM (inactive)	> 30 µM (inactive)	> 30 µM (inactive)	> 30 µM (inactive)	> 30 µM (inactive)	> 30 µM (inactive)	> 30 µM (inactive)	> 30 µM (inactive)
CCOc1cc2ncc(C#N)c(Nc3ccc(F)c(Cl)c3)c2cc1NC(=O)/C=C/CN(C)C [PELITINIB]	> 30 µM (inactive)	–	–	–	> 30 µM (inactive)	> 30 µM (inactive)	> 30 µM (inactive)	> 30 µM (inactive)	> 30 µM (inactive)	3.88 µM (active)	0.042 µM (active)	> 30 µM (inactive)	> 30 µM (inactive)	> 30 µM (inactive)	> 30 µM (inactive)	> 30 µM (inactive)	> 30 µM (inactive)	> 30 µM (inactive)	> 30 µM (inactive)	> 30 µM (inactive)
CN1CCN(CCOc2cc(OC3CCOCC3)c3c(Nc4c(Cl)ccc5c4OCO5)ncnc3c2)CC1 [SARACATINIB]	> 30 µM (inactive)	1.38 µM (active)	> 30 µM (inactive)	–	> 30 µM (inactive)	0.002 µM (active)	> 30 µM (inactive)	> 30 µM (inactive)	> 30 µM (inactive)	> 30 µM (inactive)	27.1 µM	> 30 µM (inactive)	4.65 µM (active)	> 30 µM (inactive)	39.6 µM (active)	> 30 µM (inactive)	> 30 µM (inactive)	> 30 µM (inactive)	> 30 µM (inactive)	> 30 µM (inactive)
